The values that follow come from patent US12583851B2, “Heteroaryl-substituted pyrazine derivatives as pesticides” (Elanco Animal Health GmbH, priority 2019, dated 2026).

What all share (format): in vivo
Assay [1] deals with adult brown dog ticks (Rhipicephalus sanguineus). Put plainly: Rhipicephalus sanguineus in-vitro contact test, adult brown dog ticks. The following applies: 48 h, 5 μg/cm^2 (=500 g/ha), after 48 hours, read-out: efficacy (ticks dead or moribund). In outline:
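Acetone solution coated on glass tube inner walls (900 ppm, giving 5 μg/cm^2); after drying, 5–10 adult ticks added and kept 48 h at room temperature. Efficacy scored as percent dead or moribund, i.e., ticks unable to climb away on a 45–50 °C heating plate within 5 min.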

Assay [2] deals with green peach aphid (Myzus persicae). Put plainly: Myzus persicae spray test. The settings on record: foliar, 120 h, Chinese cabbage leaf disks, after 5 days. Here is the method: Myzus persicae—Spray Test
Solvent: 78.0 parts by weight acetone • 1.5 parts by weight dimethylformamide
(§1) Emulsifier: alkylarylpolyglycol ether
(§2) To produce a suitable preparation of active compound, 1 part by weight of active compound is mixed with the stated amount of solvents and is diluted with water, containing an emulsifier concentration of 1000 ppm, to the desired concentration. Further test concentrations are prepared by dilution with emulsifier containing water.
Chinese cabbage (Brassica pekinensis) leaf disks infected with all instars of the green peach aphid (Myzus persicae), are sprayed with a preparation of the active ingredient of the desired concentration.
(§3) After 5 days mortality in % is determined. 100% means all aphids have been killed and 0% means none of the aphids have been killed.

The subject of assay [3] is Rhipicephalus (Boophilus) microplus larvae (strain Parkhurst, resistant against synthetic pyrethroids). Description: Rhipicephalus (Boophilus) microplus in-vitro contact test, larval cattle tick. The settings on record: after 48 hours, read-out: efficacy (larvae dead or moribund); for pest or weed control at 1 µg/cm2, 100 g/ha: 1 μg/cm^2 (=100 g/ha); for pest or weed control at 5 µg/cm2, 500 g/ha: 5 μg/cm^2 (=500 g/ha). The essentials:
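Acetone solutions were coated onto glass tube walls (900 ppm gives 5 μg/cm²); after drying, 20–50 pyrethroid-resistant Parkhurst larvae added and held at 27 °C, 85% RH. At 48 h, efficacy as % larvae dead or moribund, judged by loss of negative geotaxis.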

Assay [4] has as its system adult mosquitoes Anopheles funestus strain FUMOZ-R. Put plainly: Anopheles funestus test (ANPHFU surface treatment & contact assay). The settings on record: surface concentration 20 mg/m^2, 30 minutes exposure, 24 hours after contact, read-out: mortality (efficacy). Here is the method:
Anopheles funestus Test (ANPHFU Surface Treatment & Contact Assay)
(§4) Solvent: Aceton+2000 ppm rapeseed oil methyl ester (RME)
In order to produce a sufficient, active ingredient containing solution it is necessary to solve the test compound in the solvent-mix (acetone at 2 mg/ml/RME 2000 ppm). This solution is pipetted onto a glazed tile and after evaporation of the acetone, adult mosquitoes of the species Anopheles funestus strain FUMOZ-R (Hunt et al., Med. Vet. Entomol. 2005 Sep. 19(3): 271-275) are placed onto the dried surface. The exposure time is 30 minutes.
(§5) Mortality in percent (%) is determined 24 hours after contact of the insects to the treated surface. 100% mortality means that all tested insects are dead, whereas 0% means that no insect died.

For assay [5], the system named is larvae of the banded cucumber beetle (Diabrotica balteata). Put plainly: Diabrotica balteata spray test. The following applies: 168 h, after 7 days, read-out: efficacy (seedling growth); for pest or weed control at 6.4 µg/disc, 20 g/ha: 20 g/ha (=6.4 μg/well); for pest or weed control at 32 µg/disc, 100 g/ha: 100 g/ha (=32 μg/well). The essentials: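 Germinated wheat seedlings (5 per well, on agar) sprayed with compound in acetone/DMF with emulsifier-containing water, then infested with 10–20 Diabrotica balteata larvae. Efficacy (%) scored after 7 days from seedling growth: 100% = growth as untreated uninfested control, 0% = no seedlings grown.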

Assay [6] concerns fall armyworm larvae (Spodoptera frugiperda). Description: Spodoptera frugiperda spray test. The settings on record: 168 h, maize leaf sections, after 7 days. The essentials: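 Compound dissolved in acetone/dimethylformamide, diluted in water containing 1000 ppm alkylarylpolyglycol ether emulsifier and sprayed onto maize leaf sections. Dried sections were infested with larvae; % mortality scored after 7 days (100% = all caterpillars killed, 0% = none).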

Assay [7] concerns adult cat fleas (Ctenocephalides felis). Description: Ctenocephalides felis in-vitro contact test, adult cat flea. The following applies: after 48 hours, read-out: efficacy (fleas dead or moribund); for pest or weed control at 1 µg/cm2, 100 g/ha: 1 μg/cm^2 (=100 g/ha); for pest or weed control at 5 µg/cm2, 500 g/ha: 5 μg/cm^2 (=500 g/ha). In outline: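 Acetone solution coated onto glass tube walls; 900 ppm gives 5 μg/cm². Once dry, 5–10 adult fleas per tube held at room temperature for 48 h. Efficacy (%) is the share of fleas dead or moribund, i.e. unable to climb away on a 45–50° C heating plate.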

Assay [8] relates to brown planthopper (Nilaparvata lugens). Description: Nilaparvata lugens spray test. The following applies: 96 h, 500 g/ha, rice plants, after 4 days. The protocol:
Nilaparvata lugens—Spray Test
Solvent: 78.0 parts by weight of acetone • • 1.5 parts by weight of dimethylformamide
as §1, §2
Rice plants (Oryza sativa) are sprayed with a preparation of the active ingredient of the desired concentration and the plants are infested with the brown planthopper (Nilaparvata lugens).
After 4 days mortality in % is determined. 100% means all planthoppers have been killed and 0% means none of the planthoppers have been killed.

Assay [9] relates to adult flies Musca domestica strain WHO-N. Description: Musca domestica test (MUSCDO surface treatment & contact assay). The settings on record: 24 hours after contact, read-out: mortality (efficacy). The protocol: Musca domestica Test (MUSCDO Surface Treatment & Contact Assay)
as §4
In order to produce a sufficient, active ingredient containing solution it is necessary to solve the test compound in the solvent-mix (acetone at 2 mg/ml/RME 2000 ppm). This solution is pipetted onto a glazed tile and after evaporation of the acetone, adult flies of the species Musca domestica strain WHO-N are placed onto the dried surface. The exposure time is 30 minutes.
as §5

Assay [10] relates to adult mosquitoes Aedes aegypti strain MONHEIM. Put plainly: Aedes aegypti test (AEDSAE surface treatment & contact assay). The following applies: 24 hours after contact, read-out: mortality (efficacy); for mortality at 20 mg/m2: surface concentration 20 mg/m^2, 30 minutes exposure. The protocol:
Aedes aegypti Test (AEDSAE Surface Treatment & Contact Assay)
as §4
In order to produce a sufficient, active ingredient containing solution it is necessary to solve the test compound in the solvent-mix (acetone at 2 mg/ml/RME 2000 ppm). This solution is pipetted onto a glazed tile and after evaporation of the acetone, adult mosquitoes of the species Aedes aegypti strain MONHEIM are placed onto the dried surface. The exposure time is 30 minutes.
as §5

Assay [11] relates to green peach aphid (Myzus persicae). Put plainly: Myzus persicae oral test. The settings on record: 120 h, 4 ppm, after 5 days. Here is the method:
Solvent: 100 parts by weight acetone
To produce a suitable preparation of active compound, 1 part by weight of active compound is mixed with the stated amount of solvent, and the concentrate is diluted with water to the desired concentration.
50 μL compound solution is filled in microtiter plates and 150 μL IPL41 insect medium (33%+15% sugar) is added to obtain a total volume of 200 μL per well. Afterwards the plates are sealed with parafilm through which a mixed population of the green peach aphid (Myzus persicae) can suck on the compound preparation.
as §3

In assay [12] the test system is adult Blattella germanica strain PAULINIA
Description: Blattella germanica test (BLTTGE surface treatment & contact assay). The following applies: surface concentration 20 mg/m^2, 30 minutes exposure, 24 hours after contact, read-out: mortality (efficacy). Here is the method:
Blattella germanica Test (BLTTGE Surface Treatment & Contact Assay)
as §4
In order to produce a sufficient, active ingredient containing solution it is necessary to solve the test compound in the solvent-mix (acetone at 2 mg/ml/RME 2000 ppm). This solution is pipetted onto a glazed tile and after evaporation of the acetone, adult animals of the species Blattella germanica strain PAULINIA are placed onto the dried surface. The exposure time is 30 minutes.
as §5

Assay [13] deals with adult unfed cat fleas (Ctenocephalides felis). Put plainly: Ctenocephalides felis oral test. The following applies: 48 h, 100 ppm in citrated cattle blood, after 2 days. The essentials: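 About 20 adult unfed cat fleas fed through parafilm on citrated cattle blood containing compound (from a DMSO concentrate). Blood held at 37° C, fleas at room temperature. Mortality in % scored after 2 days.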

Assay [14] deals with adult engorged female ticks (Rhipicephalus microplus). Put plainly: Rhipicephalus (Boophilus) microplus injection test. The settings on record: 168 h, 4 μg/animal, egg deposition after 7 days, read-out: efficacy (infertile eggs). The essentials: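 Five adult engorged female ticks injected into the abdomen with 1 μL compound solution in DMSO, then held in a climate chamber. Fertile egg deposition assessed after 7 days, unclear eggs kept until hatching (about 42 days); efficacy 100% = all eggs infertile, 0% = all fertile.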

[15] abbreviates: surface concentration 4 mg/m^2, 30 minutes exposure.

`CCN(C)C(=O)c1cnc(-c2nccnc2[C@H](C)NC(=O)c2cc(C(F)(F)F)cc(C(F)(F)F)c2)s1` [Example I-85, 2-(3-{(1S)-1-[3,5-bis(trifluoromethyl)benzamido]ethyl}pyrazin-2-yl)-N-ethyl-N-methyl-1,3-thiazole-5-carboxamide]: the pest or weed control at 5 µg/cm2, 500 g/ha in assay [1], in assay [3] and in [7] was 100% throughout. For the same molecule, the mortality (in general, the percentage killed) at 100 g/ha in assay [2] turned out to be 90%; in assay [6] it was 100%. For the same molecule, the pest or weed control at 1 µg/cm2, 100 g/ha in assay [3] and in assay [7] was 100% in each case. The mortality at 20 mg/m2 in assay [4] lay in the range of 80 to 100%; in assay [9] (surface concentration 20 mg/m^2, 30 minutes exposure), 80 to 100%; in assay [10] it was 80 to 100%. Besides, in [5], the pest or weed control at 6.4 µg/disc, 20 g/ha was 100%. The pest or weed control at 32 µg/disc, 100 g/ha in assay [5] is 100%. For the same molecule, the mortality at 500 g/ha in assay [8] is 100%.

For the molecule `CC(NC(=O)c1cc(C(F)(F)F)cc(C(F)(F)F)c1)c1nccnc1-c1ccc(C(=O)N2CCOCC2)cn1` (racemic) [Example I-34, (rac)-N-[1-{3-[5-(morpholine-4-carbonyl)pyridin-2-yl]pyrazin-2-yl}ethyl]-3,5-bis(trifluoromethyl)benzamide], the pest or weed control at 5 µg/cm2, 500 g/ha was 80% in assay [1], 100% in [3] and 90% in assay [7]. The molecule further yielded a mortality at 4 ppm in assay [11] of 100%. The pest or weed control at 1 µg/cm2, 100 g/ha amounted to 100% in assay [3] and 80% in [7]. Besides, the pest or weed control at 32 µg/disc, 100 g/ha in assay [5] was 80%.

Consider `CC(NC(=O)c1cc(F)cc(C(F)(F)F)c1)c1nccnc1-c1ncccn1` (racemic) [Example I-7, (rac)-3-Fluoro-N-(1-(3-(pyrimidin-2-yl)pyrazin-2-yl)ethyl)-5-(trifluoromethyl)benzamide], for which the pest or weed control at 5 µg/cm2, 500 g/ha in assay [1] and in assay [3] was 100% throughout. For the same molecule, the mortality at 20 mg/m2 in assay [12], in assay [4] and in assay [10] was 80 to 100% throughout. In addition, the pest or weed control at 1 µg/cm2, 100 g/ha in assay [3] is 100%; in assay [7], 90%. The molecule also showed a mortality at 100 ppm in [13] of 100%. The pest or weed control at 0.004 mg in assay [14] was 100%. The mortality at 4 mg/m2 in assay [9] (setting [15]) and in assay [10] (setting [15]) was 80 to 100% throughout.

As to `CC(NC(=O)c1cc(C(F)(F)F)cc(C(F)(F)F)c1)c1nccnc1-c1ccc(Cl)cn1` (centres unmarked) [Example I-20], the mortality at 4 ppm in assay [11] is 90%. Moreover, in [3], the pest or weed control at 1 µg/cm2, 100 g/ha is 100% and the pest or weed control at 5 µg/cm2, 500 g/ha came to 100%. In assay [5], the pest or weed control at 6.4 µg/disc, 20 g/ha was found to be 80% and the pest or weed control at 32 µg/disc, 100 g/ha is 100%. The mortality at 100 g/ha in assay [6] came to 100%. For the same molecule, the pest or weed control at 0.004 mg in assay [14] was determined as 80%.
